A word on the IC50: it is the concentration needed to halve the response being measured. One may read the GI50 as the concentration giving 50% growth inhibition.

Assay [1] is described as follows: Inhibition of rat recombinant geranylgeranyltransferase type I expressed in Escherichia coli assessed as reduction in geranylgeranylation of RhoA incubated for 30 mins in presence of [3H]GGPP by scintillation counting assay relative to control.
In assay [2] the test system is Jurkat. Kind of assay: Antiproliferative activity against human Jurkat cells assessed as inhibition of cell proliferation incubated for 72 hrs by CCK8 assay. The format is functional, cell-based. Background: Tetrazolium assays rely on reduction of a dye to a coloured formazan, in cell work by metabolically active cells.
The species entered for assay [3] is Rattus norvegicus. In words: Inhibition of rat recombinant geranylgeranyltransferase type I expressed in Escherichia coli assessed as residual enzyme activity for geranylgeranylation of RhoA at 50 uM incubated for 30 mins in presence of [3H]GGPP by scintillation counting assay relative to control.
The species entered for assay [4] is Rattus norvegicus. Kind of assay: Inhibition of rat recombinant geranylgeranyltransferase type I expressed in Escherichia coli assessed as residual enzyme activity for geranylgeranylation of K-Ras4B at 50 uM incubated for 30 mins in presence of [3H]GGPP by scintillation counting assay relative to control.

Where only a bound is given, the exact number is not on record here.

As to `CC(C)(C)[C@@H]1C=C(C(=O)O)[C@H](c2ccc(Cl)c(Cl)c2)N1S(=O)(=O)c1c(Cl)cccc1Cl`, in assay [1], the IC50 was found to be 4400 nM.

`O=C(O)C1=CC[C@@H](c2ccc(Br)cc2)N(S(=O)(=O)c2ccc(Br)cc2)[C@H]1c1cccc(Cl)c1`: in assay [1], the IC50 was determined as 398 nM.

For the compound `CC(C)(C)[C@@H]1C=C(C(=O)O)[C@H](c2ccc(Cl)c(Cl)c2)N1S(=O)(=O)C(C)(C)C`, the IC50 in assay [1] was 4400 nM.

Turning to `O=C(O)C1=CC[C@@H](c2ccc(Cl)c(Cl)c2)N(S(=O)(=O)c2ccc(Cl)cc2)[C@H]1c1cccc(Cl)c1`, the IC50 in assay [1] came out at 310 nM.

Regarding `COC(=O)[C@H](CC(C)C)NC(=O)C1=CC[C@@H](c2ccc(Cl)cc2)N(S(=O)(=O)c2ccccc2C)[C@H]1c1cccc(Cl)c1`, the GI50 in assay [2] was in the range of 3530 to 6100 nM. Further, the IC50 in assay [1] fell in the range of 20000 to 50000 nM.

Take `O=C(O)C1=CC[C@@H](c2cccc(Cl)c2)N(S(=O)(=O)c2ccc(Cl)cc2)[C@H]1c1cccc(Cl)c1`: the IC50 in assay [1] is 241 nM.

Regarding `O=C(N[C@@H](Cc1ccccc1)C(=O)O)C1=CC[C@@H](c2cccc(Cl)c2)N(S(=O)(=O)c2ccc(Br)cc2)[C@H]1c1cccc(Br)c1`, the IC50 in assay [1] is 32 nM.

As to `Cc1cccc([C@@H]2CC=C(C(=O)O)[C@H](c3cccc(Br)c3)N2S(=O)(=O)c2ccc(Br)cc2)c1`, in assay [1], the IC50 stood at 330 nM.

With `O=C(O)C1=CC[C@@H](c2cccc(Br)c2)N(S(=O)(=O)c2ccc(Cl)cc2)[C@H]1c1cccc(F)c1`, the concentration for half-maximal inhibition (IC50) in assay [1] amounted to 841 nM.

For `O=C(O)C1=CC[C@@H](c2cccc(Br)c2)N(S(=O)(=O)c2ccc(Br)cc2)[C@H]1c1cccc(Cl)c1`, in assay [1], the IC50 turned out to be 529 nM.

`CC(C)C[C@H](NC(=O)C1=CC[C@@H](c2cccc(Cl)c2)N(S(=O)(=O)c2ccc(Br)cc2)[C@H]1c1cccc(Br)c1)C(=O)O`: the IC50 in assay [1] came out at 40 nM.

As to `NC(=O)[C@H](Cc1ccccc1)NC(=O)C1=CC[C@@H](c2cccc(Cl)c2)N(S(=O)(=O)c2ccc(Br)cc2)[C@H]1c1cccc(Br)c1`, the IC50 in assay [1] is over 20000 nM.

Turning to `O=C(O)C1=CC[C@@H](c2cccc(Br)c2)N(S(=O)(=O)c2ccc(F)cc2)[C@H]1c1cccc(Cl)c1`, in assay [1], the IC50 came out at 212 nM.

On to `COc1ccc([C@@H]2C[C@@H](SCCc3ccccc3)[C@H](C(=O)O)CN2S(=O)(=O)c2ccc(C)cc2)cc1`, for which the Activity in assay [3] was 6.1%; in assay [4] it was 28.8 to 29.9%.

For the compound `Cc1ccc(S(=O)(=O)N2C[C@@H](C(=O)O)[C@H](SCc3ccccc3)C[C@H]2c2ccccc2F)cc1`, the Activity in assay [3] was 8.1%; in assay [4] it was 12.8 to 15.7%.

Consider `C=CCS[C@@H]1C[C@@H](c2cccc(Br)c2)N(S(=O)(=O)c2ccc(C)cc2)C[C@H]1C(=O)O`, for which the Activity in assay [3] was 13.6%; in assay [4], 29.2 to 83.6%.

Take `Cc1ccccc1S(=O)(=O)N1[C@@H](c2cccc(Cl)c2)C(C(N)=O)=CC[C@H]1c1ccc(Cl)cc1`: in assay [2], the GI50 was determined as 5360 nM. In assay [1], the IC50 was over 20000 nM.

As to `O=C(O)C1=CC[C@@H](c2cccc(Cl)c2)N(S(=O)(=O)c2ccc(Br)cc2)[C@H]1c1cccc(Cl)c1`, in assay [1], the IC50 was in the range of 86 to 87.1 nM.

`Cc1ccc(S(=O)(=O)N2[C@@H](c3cccc(Br)c3)C(C(=O)O)=CC[C@H]2c2cccc(Br)c2)cc1`: the Activity in assay [3] was 3.7%; in assay [4], 9.4 to 15.2%.

On to `Cc1ccc([C@@H]2C[C@@H](SCc3ccc(Cl)cc3)[C@H](C(=O)O)CN2S(=O)(=O)c2ccc(Cl)cc2)cc1`, for which the Activity in assay [3] was 3.3%; in assay [4], 30.8 to 31.6%.

For `NC(=O)[C@H](Cc1ccccc1)NC(=O)C1=CC[C@@H](c2cccc(Br)c2)N(S(=O)(=O)c2ccc(Cl)cc2)[C@H]1c1cccc(Cl)c1`, in assay [1], the IC50 fell in the range of 300 to 450 nM.

Regarding `Cc1ccc(S(=O)(=O)N2C[C@@H](C(=O)O)[C@H](Sc3ccc(Cl)cc3)C[C@H]2c2cccc(Br)c2)cc1`, the Activity fell in the range of 0.2 to 3.2% in assay [3] and 20.4 to 22.8% in assay [4].

For the compound `CC(C)C[C@H](NC(=O)C1=CC[C@@H](c2cccc(Cl)c2)N(S(=O)(=O)c2ccc(Br)cc2)[C@H]1c1cccc(Cl)c1)C(N)=O`, the IC50 in assay [1] was over 20000 nM.

For the compound `CCOc1ccc([C@@H]2C[C@@H](SCc3ccc(Cl)cc3)[C@H](C(=O)O)CN2S(=O)(=O)c2ccc(C)cc2)cc1`, the Activity was 2.6% in assay [3] and 3.1 to 3.7% in assay [4].

`CCCCCC[C@@H]1[C@@H](Sc2ccc(C)cc2)[C@@H](C(=O)O)[C@H](c2ccc(Cl)cc2)N1S(=O)(=O)c1ccccc1`: the results for the Activity in assay [3] and in assay [4] were 7.5% and 15%, respectively.

Consider `CCCCS[C@@H]1C[C@@H](c2ccc(C)cc2)N(S(=O)(=O)c2ccccc2C)C[C@H]1C(=O)O`, for which the figures for the Activity in assay [3] and in assay [4] were 19.8% and 43.5 to 43.7%, respectively.

For `Cc1ccc(S(=O)(=O)N2C[C@@H](C(=O)O)[C@H](SCCC(C)C)C[C@H]2c2cccc(Cl)c2)cc1`, the Activity in assay [3] was 12%; in assay [4] it was 25.1 to 26%.

Take `C=CCS[C@H]1[C@@H](C(=O)O)[C@H](c2ccc(C(C)C)cc2)N(S(=O)(=O)c2ccc(C)cc2)[C@@H]1CC1CCCC1`: the results for the Activity in assay [3] and in assay [4] were 6.1% and 31.7%, respectively.

Turning to `CC[C@@H]1[C@@H](SCCC(=O)OC(C)(C)C)[C@@H](C(=O)O)[C@H](c2ccc(Cl)c(Cl)c2)N1S(=O)(=O)c1ccc(C)cc1`, the Activity in assay [3] stood at 7.6%; in assay [4], 27.2%.

For the compound `Cc1ccc([C@@H]2C[C@@H](Sc3ccc(Cl)cc3)[C@H](C(=O)O)CN2S(=O)(=O)c2ccccc2C)cc1`, the Activity was -4.7 to 10.5% in assay [3] and 4 to 6% in assay [4].

As to `Cc1ccc(S(=O)(=O)N2[C@@H](c3cccc(Br)c3)C(C(=O)O)=CC[C@H]2c2ccc(Cl)c(Cl)c2)cc1`, the Activity in assay [3] is 3.2%; in assay [4], 8.6 to 24.9%.

Consider `C=CCS[C@H]1[C@@H](C(=O)O)[C@H](c2ccc(Cl)c(Cl)c2)N(S(=O)(=O)c2ccc(C)cc2)[C@@H]1CCCC`, for which the values for the Activity in assay [3] and in assay [4] were 9.6% and 21.4%, respectively.

Turning to `CCCCS[C@H]1[C@@H](C(=O)O)[C@H](c2cccc(F)c2)N(S(=O)(=O)c2ccc(C)cc2)[C@@H]1CCCC`, the Activity came to 7.1% in assay [3] and 23.5% in assay [4].

On to `CC(C)(C)[C@@H]1C=C(C(=O)N[C@@H](Cc2ccccc2)C(N)=O)[C@H](c2ccc(Cl)c(Cl)c2)N1S(=O)(=O)c1c(Cl)cccc1Cl`, for which the GI50 in assay [2] was in the range of 4910 to 5280 nM. Moreover, in assay [1], the IC50 is over 50000 nM.

Consider `Cc1ccc(S(=O)(=O)N2[C@H](CC3CCCC3)[C@@H](SCCC(=O)OC(C)(C)C)[C@@H](C(=O)O)[C@@H]2c2cccc(F)c2)cc1`, for which the Activity in assay [3] was determined as 8.2%; in assay [4], 31.9%.

`Cc1ccc(S(=O)(=O)N2[C@H](CC3CCCC3)[C@@H](SCCC(=O)OC(C)(C)C)[C@@H](C(=O)O)[C@@H]2c2ccc(Cl)c(Cl)c2)cc1`: the figures for the Activity in assay [3] and in assay [4] were 7.3% and 16.1%, respectively.

Take `Cc1ccc(S(=O)(=O)N2C[C@@H](C(=O)O)[C@H](SCc3ccc(Cl)cc3)C[C@H]2c2ccc(Cl)cc2)cc1`: the Activity in assay [3] is 4.9%; in assay [4], 15.5 to 18.1%.

As for `Cc1cccc([C@H]2C(C(=O)O)=CC[C@@H](c3cccc(Br)c3)N2S(=O)(=O)c2ccc(Cl)cc2)c1`, the IC50 in assay [1] was 256 nM.

For the compound `Cc1ccc([C@@H]2C[C@@H](SCc3ccc(Cl)cc3)[C@H](C(=O)O)CN2S(=O)(=O)c2ccccc2C)cc1`, the Activity in assay [3] was 10.5%; in assay [4], 19.6 to 20.4%.

As for `COc1ccc([C@@H]2C[C@@H](Sc3ccccc3)[C@H](C(=O)O)CN2S(=O)(=O)c2ccc(Cl)cc2)cc1`, the values for the Activity in assay [3] and in assay [4] were 11.9% and 97.2%, respectively.

As for `Cc1ccc(S(=O)(=O)N2[C@@H](c3cccc(F)c3)C(C(=O)O)=CC[C@H]2c2cccc(Br)c2)cc1`, the figures for the Activity in assay [3] and in assay [4] were 15% and 17 to 85.6%, respectively.

Regarding `O=C(O)C1=CC[C@@H](c2cccc(Br)c2)N(S(=O)(=O)c2ccc(Cl)cc2)[C@H]1c1cccc(Cl)c1`, the IC50 in assay [1] lay within 125 to 154 nM.

Take `CC(C)(C)[C@@H]1C=C(C(=O)N[C@@H](Cc2ccccc2)C(N)=O)[C@H](c2ccc(Cl)c(Cl)c2)N1S(=O)(=O)c1ccccc1Br`: the IC50 in assay [1] is over 20000 nM.

As for `COc1ccc([C@@H]2C[C@@H](SCCc3ccccc3)[C@H](C(=O)O)CN2S(=O)(=O)c2ccccc2)cc1`, the values for the Activity in assay [3] and in assay [4] were 9.6% and 24.1 to 28.3%, respectively.

With `C=CCS[C@H]1[C@@H](C(=O)O)[C@H](c2cccc(F)c2)N(S(=O)(=O)c2ccc(C)cc2)[C@@H]1CC1CCCC1`, the Activity was found to be 9.7% in assay [3] and 30.4% in assay [4].

Turning to `O=C(O)C1=CC[C@@H](c2cccc(Br)c2)N(S(=O)(=O)c2ccc(Br)cc2)[C@H]1c1cccc(Br)c1`, the IC50 in assay [1] was determined as 525 nM.

Consider `C=CCS[C@@H]1C[C@@H](c2ccc(Cl)cc2)N(S(=O)(=O)c2ccccc2C)C[C@H]1C(=O)O`, for which the figures for the Activity in assay [3] and in assay [4] were 9.4% and 16.4 to 17.8%, respectively.

Turning to `Cc1ccccc1S(=O)(=O)N1C[C@@H](C(=O)O)[C@H](Sc2ccc(Cl)cc2)C[C@H]1c1ccc(Cl)cc1`, the results for the Activity in assay [3] and in assay [4] were 13% and 83.5%, respectively.

With `Cc1ccc([C@@H]2C[C@@H](Sc3ccc(Cl)cc3)[C@H](C(=O)O)CN2S(=O)(=O)c2ccccc2)cc1`, the values for the Activity in assay [3] and in assay [4] were 17.2% and 78.3%, respectively.

Regarding `CCCCCC[C@@H]1[C@@H](Sc2ccc(C)cc2)[C@@H](C(=O)O)[C@H](c2ccc(Cl)c(Cl)c2)N1S(=O)(=O)c1ccc(C)cc1`, the Activity was 9.2% in assay [3] and 21.3% in assay [4].

Consider `O=C(O)C1=CC[C@@H](c2cccc(Cl)c2)N(S(=O)(=O)c2ccc(Br)cc2)[C@H]1c1cccc(Br)c1`, for which, in assay [1], the IC50 fell in the range of 155 to 169 nM.

Consider `NC(=O)[C@H](Cc1ccccc1)NC(=O)C1=CC[C@@H](c2cccc(Cl)c2)N(S(=O)(=O)c2ccc(Cl)cc2)[C@H]1c1cccc(Cl)c1`, for which the IC50 in assay [1] was determined as 600 nM.

For the compound `Cc1ccccc1S(=O)(=O)N1C[C@@H](C(=O)O)[C@H](SCc2ccccc2)C[C@H]1c1ccc(Cl)cc1`, the Activity in assay [3] is 7.8%; in assay [4], 8.7 to 12%.

As to `CCC[C@@H]1[C@@H](Sc2ccc(C)cc2)[C@@H](C(=O)O)[C@H](c2cccc(F)c2)N1S(=O)(=O)c1ccc(C)cc1`, the Activity turned out to be 4.1% in assay [3] and 14.7% in assay [4].

The record behind these values is ChEMBL document CHEMBL4421722, “Inhibitors of protein prenyltransferases” (2013).
